According to publication PMC8842277, “Highly Antiproliferative Latonduine and Indolo[2,3-c]quinoline Derivatives: Complex Formation with Copper(II) Markedly Changes the Kinase Inhibitory Profile” (Journal of Medicinal Chemistry, 2022):

How the values were obtained:
[1] = tested on: HCT-116 colon carcinoma cells; test: MTT assay, 96 h; format: cell-based, human
Description: (§1) The oncosuppressor protein p53 controls the cellular response to DNA strand breaks induced by cytotoxic drugs or by radiation.[58] The p53 protein may enhance cell chemosensitivity by promoting apoptosis via different mechanisms including activation of proapoptotic genes such as bax and repression of antiapoptotic genes such as bcl-2 or in contrast increase chemoresistance by promoting p21-mediated and p21-independent growth arrest and DNA repair and by activation of antiapoptotic genes such as bcl-x. There is strong evidence that the modulation of drug sensitivity by p53 may be both drug- and cell type-specific.[59] […] Accordingly, essential differences in chemosensitivity were observed between cells with wild-type p53 gene and cells with knocked out p53 gene by homologous recombination.[60]
(§2) Human colonic adenocarcinoma cell lines Colo 205 doxorubicin-sensitive (ATCC-CCL-222) and Colo 320/MDR-LRP multidrug resistant over-expressing ABCB1 (MDR1)-LRP (ATCC-CCL-220.1) were purchased from LGC Promochem, Teddington, UK. The cells were cultured in an RPMI 1640 medium supplemented with 10% heat-inactivated fetal bovine serum, 2 mM L-glutamine, 1 mM Na-pyruvate, and 10 mM HEPES. The semi-adherent human colon cancer cells were detached with Trypsin-Versene (EDTA) solution for 5 min at 37 °C. An MRC-5 human embryonal lung fibroblast cell line (ATCC CCL-171) was purchased from LGC Promochem, Teddington, UK. The cells were cultured in Eagle’s minimal essential medium (EMEM, containing 4.5 g L^–1 glucose) supplemented with a non-essential amino acid mixture, a selection of vitamins, and 10% heat-inactivated fetal bovine serum. The HCT-116 colon carcinoma cells and isogenic p53-knock-out subline were a gift of Prof. Bert Vogelstein from The Johns Hopkins Oncology Center. Cells were cultured in McCoy’s 5A medium supplemented with 10% heat-inactivated fetal bovine serum and 4 mM L-glutamine. All cell lines were incubated at 37 °C, in a 5% CO2, 95% air atmosphere.
(§3) MRC-5 non-cancerous human embryonic lung fibroblast and human colonic adeno-carcinoma cell lines (doxorubicin-sensitive Colo 205 and multidrug resistant Colo 320 colonic adenocarcinoma cells) were used to determine the effect of compounds on cell growth. The effects of increasing concentrations of compounds on cell growth were tested in 96-well flat-bottomed microtiter plates. The compounds were dissolved in DMSO and stock solutions of 10 mM were prepared. These were further diluted in the appropriate cell culture medium by twofold serial dilution starting from 100 or 10 μM for the compounds. The adherent human embryonal lung fibroblast cells were cultured in 96-well flat-bottomed microtiter plates using EMEM supplemented with 10% heat-inactivated fetal bovine serum. The density of the cells was adjusted to 1 × 10^4 cells in 100 μL per well, the cells were seeded for 24 h at 37 °C, 5% CO2, then the medium was removed from the plates containing the cells, and the dilutions of compounds previously made in a separate plate were added to the cells in 200 μL. In the case of the colonic adenocarcinoma cells, the twofold serial dilutions of compounds were prepared in 100 μL of RPMI 1640, horizontally. The semi-adherent colonic adenocarcinoma cells were treated with Trypsin-Versene (EDTA) solution. They were adjusted to a density of 1 × 10^4 cells in 100 μL of RPMI 1640 medium and were added to each well, with the exception of the medium control wells. […]

[2] = tested on: HCT-116 isogenic p53-knock-out subline; test: MTT assay, 96 h; format: cell-based, human; conditions: read-out: IC50 HCT-116p53ko, mean
Description: as §1, §2, §3

Colo320 cells = test: Apoptosis assay, Annexin-V-FITC/PI flow cytometry; conditions: 3 h induction
Description: An apoptosis assay was performed by flow cytometry via the analysis of multidrug-resistant Colo320 cells stained with Annexin-V-FITC and propidium iodide (PI).
Colo320 cells were treated at the indicated concentration of the compounds. The dual parametric dot plots combining Annexin-V (FL1) and PI (FL3) fluorescence show the viable cell population in the lower left quadrant Annexin-V–/PI– (Q4), the early apoptotic cells in the lower right quadrant Annexin-V+/PI– (Q3), and the late apoptotic and necrotic cells in the upper right quadrant Annexin-V+/PI+ (Q2).
The assay was carried out for selected compounds using an Annexin V-FITC Apoptosis Detection Kit (cat. no. APOAF-50TST) from Sigma according to the manufacturer’s instructions. The concentration of the Colo320 cell suspension was adjusted to approximately 0.5 × 10^6 cells/mL in an RPMI 1640 medium, and the cell suspension was distributed in 1 mL of aliquots into a 24-well plate and then incubated overnight at 37 °C and 5% CO2. On the following day, the medium was removed and replaced by 1 mL of RPMI medium containing the compounds except the control samples. […] After the incubation period, the samples were washed with PBS and fresh RPMI 1640 medium was added to the samples. The cells were incubated overnight at 37 °C and 5% CO2. The next day, 200 μL of 0.25% Trypsin (Trypsin-Versen) was added to the samples until cells appeared detached followed by the addition of 400 μL of RPMI 1640 medium supplemented with 10% bovine serum. The cells were collected in Eppendorf tubes and centrifuged at 2000g for 2 min. The harvested cells were resuspended in fresh serum-free RPMI 1640 culture medium. After this step, the apoptosis assay was carried out according to the instructions of the manufacturer. The fluorescence was analyzed immediately using a ParTec CyFlow flow cytometer (Partec GmbH, Münster, Germany).
• Apoptosis and DNA binding studies […]

Compound: N.N.[Cl][Pt][Cl] [cisplatin, reference compound]
- IC50 [1]: 780 nM
- IC50 [2]: 1700 nM
- Cell death % Q1 (Colo320 cells; 15 µM): 1.64%
- Early apoptosis % Q3 (Colo320 cells; 15 µM): 1.68%
- Late apoptosis and necrosis % Q2 (Colo320 cells; 15 µM): 2.24%
- Cell death % Q1 (Colo320 cells; 30 µM): 0.79%
- Early apoptosis % Q3 (Colo320 cells; 30 µM): 4.90%
- Late apoptosis and necrosis % Q2 (Colo320 cells; 30 µM): 4.07%
